Assay results reported in patent US20140162285A1, “Methods of Modulating Vesicular Trafficking” (The General Hospital Corporation, priority 2009, published 2014).
Peptide text beside a SMILES is read from it. * marks the point of attachment. Biotin = O=C1N[C@H]2[C@H](CS[C@H]2CCCCC(=O)*)N1

T1: PH-domain of ARNO (Homo sapiens, UniProt Q99418)
T1 construct: iv) 253-378aa, plekstrin-homology (PH) domain; made in house; host or cells: E. coli BL21(DE3)
T1 sequence (Q99418 253-378): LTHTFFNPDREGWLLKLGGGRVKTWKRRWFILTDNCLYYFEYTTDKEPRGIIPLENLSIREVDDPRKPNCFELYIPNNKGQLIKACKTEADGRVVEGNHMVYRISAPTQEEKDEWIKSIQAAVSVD

T2: ARNO's GEF activity with Arf6 (Homo sapiens, UniProt Q99418)
T2 sequence (Q99418 1-400): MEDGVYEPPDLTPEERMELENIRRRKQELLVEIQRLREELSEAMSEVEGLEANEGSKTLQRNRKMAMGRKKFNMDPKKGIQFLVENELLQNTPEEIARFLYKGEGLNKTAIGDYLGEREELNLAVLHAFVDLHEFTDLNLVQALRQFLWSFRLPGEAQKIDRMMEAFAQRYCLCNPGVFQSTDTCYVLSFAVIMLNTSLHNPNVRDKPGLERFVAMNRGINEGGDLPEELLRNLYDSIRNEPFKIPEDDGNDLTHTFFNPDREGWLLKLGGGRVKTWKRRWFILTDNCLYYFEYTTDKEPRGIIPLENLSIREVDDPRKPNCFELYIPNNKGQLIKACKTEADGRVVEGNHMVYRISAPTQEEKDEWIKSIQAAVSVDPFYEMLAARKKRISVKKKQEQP


How the values were obtained:
PH-domain of ARNO = target: T1, PH-domain of ARNO; experiment: a2N-derived peptide pull-down with GST-PH domain; format: binding
Description: FIGS. 5A-C are a set of three images of Western blots showing the identification of interaction motif of a2N that is involved in specific binding with the Sec7 domain of ARNO. 5A, The catalytic Sec7 domain of ARNO interacts with two a2N-derived peptides, a2N-01 and a2N-03, in pull-down experiments. The peptide pull-down assay was performed with six a2N-derived interaction peptides immobilized on streptavidin-beads and incubated with purified recombinant GST-only or GST-Sec7 domain. Interacting complexes were eluted and analyzed by Western blotting using monoclonal anti-GST antibodies as described below. The loading controls for GST-only (lane 1) or GST-Sec7 (lane 2) are shown. […] The peptide pull-down assay was performed with peptides a2N-01 and a2N-03 immobilized on streptavidin-beads and incubated with purified recombinant GST-PH domain (5B) or GST-PB domain (5C). Interacting complexes were eluted and analyzed by Western blotting using monoclonal anti-GST antibodies. […]
These a2N-derived peptides were immobilized by an N-terminal biotin-tag, which ensured the same efficiency and equivalent binding to streptavidin-agarose beads. […] After washing beads four times in ice-cold binding buffer, the interacting complexes were eluted by boiling in SDS-PAGE sample buffer for 10 min at 95° C., resolved by SDS-PAGE and analyzed by Western blotting using monoclonal anti-GST antibody. […]

[1] = target: T2, ARNO's GEF activity with Arf6; experiment: radiolabel GDP/GTP-exchange (GEF) activity assay of ARNO with Arf6; format: biochemical; conditions: recombinant protein
Description: To test the effect of V-ATPase-derived peptides on enzymatic activity of small GTPases, the GDP/GTP exchange activity assay of ARNO with Arf6 was established in the presence of GTPγS and phospholipids vesicles containing various amounts of phosphatidylinositol PIP2 (FIG. 8).
Phospholipid vesicles were prepared by the extrusion method (Macia and Paris Biochemistry, 39: 5893-5901 (2000)). The lipids were dissolved in chloroform. A film of phospholipids was formed by evaporating chloroform and was resuspended in 50 mM Hepes, pH 7.5, and 1 mM dithiothreitol. The suspension was freeze-thawed 3 times and was passed through a 0.1 μm pore size polycarbonate filter.
GDP/GTP-exchange activity of ARNO was measured using time-course radiolabel based assay as previously described (Santy et al., Curr Biol. 9:1173-1176 (1999)). […] After washing filters 3 times with 2 ml of stop buffer, radioactivity was quantified using Perkin-Elmer “Tri-Carb 2900TR” liquid-scintillation counter.
In peptide-inhibition experiments, 500 nM of recombinant ARNO were incubated in the presence of different amounts (0-2000 nM) of FITC-a2N-01-TAT peptide or FITC-TAT peptide as a control. […] The enzymatic activities were followed for 30 min at 37° C. and radioactivity of aliquots were analyzed as described above.

| interaction with PH-domain of ARNO (PH-domain of ARNO) | modulation of GDP/GTP-exchange activity of ARNO [1] | Molecule |
| --- | --- | --- |
| does not interact |  | CSCC[C@H](NC(=O)CCCC[C@@H]1SC[C@@H]2NC(=O)N[C@@H]21)C(=O)NCC(=O)N[C@@H](CO)C(=O)N[C@@H](CC(C)C)C(=O)N[C@@H](Cc1ccccc1)C(=O)N[C@@H](CCCNC(=N)N)C(=O)N[C@@H](CO)C(=O)N[C@@H](CCC(=O)O)C(=O)N[C@@H](CO)C(=O)N[C@@H](CCSC)C(=O)N[C@@H](CS)C(=O)N[C@@H](CC(C)C)C(=O)N[C@@H](C)C(=O)N[C@@H](CCC(N)=O)C(=O)N[C@@H](CC(C)C)C(=O)N[C@@H](Cc1ccccc1)C(=O)N[C@@H](CC(C)C)C(=O)N[C@@H](CS)C(=O)O [a2N-01, Bio-MGSLFRSE SMCLAQLFL-Cys] (Biotin-MGSLFRSESMCLAQLFLC-OH; N-terminus and C-terminus assumed) |
|  | successfully used to modulate | a2N: recombinant N-terminal cytosolic tail, amino acid residues 1-402 of mouse V-ATPase a2-subunit (protein, left off: small tags and cut ends, recombinant N-terminal cytosolic tail, amino acid residues 1-402 of mouse V-ATPase a2-subunit) MGSLFRSESMCLAQLFLQSGTAYECLSALGEKGLVQFRDLNQNVSSFQRKFVGEVKRCEELERILVYLVQEITRADIPLPEGEASPPAPPLKHVLEMQEQLQKLEVELREVTKNKEKLRKNLLELVEYTHMLRVTKTFLKRNVEFEPTYEEFPALENDSLLDYSCMQRLGAKLGFVSGLIQQGRVEAFERMLWRACKGYTIVTYAELDECLEDPETGEVIKWYVFLISFWGEQIGHKVKKICDCYHCHIYPYPNTAEERREIQEGLNTRIQDLYTVLHKTEDYLRQVLCKAAESVCSRVVQVRKMKAIYHMLNMCSFDVTNKCLIAEVWCPEVDLPGLRRALEEGSRESGATIPSFMNTIPTKETPPTLIRTNKFTEGFQNIVDAYGVGSYREVNPALFTII |
